Assay [1] has as its system CMPTX-labeled tumor cells across HMVEC-DBl. Briefly: modified Boyden chamber, trans-endothelial tumor cell migration, HMVEC-DBl. Type of assay: cell-based, human. Conditions: Fig1E. On the procedure:
ECs were first treated with Vasculotide (VT), PBS (vehicle/negative control), Ang1 (positive control), PEG-Cys (polyethylene glycol backbone), T7c (non-PEGylated CHHHRHSF peptides), or VT in the presence of 100-fold molar excess of T7c. The concentrations used, 10–20 ng/mL VT and 200–400 ng/mL Ang1, are estimated molar equivalents (0.71–1.43 nM). Thirty minutes later, ECs were stimulated with thrombin, 0.1% BSA (vehicle/negative control), or EDTA (positive control). Another 30mins later, the amount of FITC-dextran diffusion into the lower chambers (A, D) provides a measure of endothelial permeability. CMTPX-labeled tumor cells (TCs) were then dispensed into inserts, and the amount of TC fluorescence emitting from the underside of insert membranes after 20 h (B–C) or 28 h (E) reflects the efficiency of trans-endothelial TC migration. […] Three experiments (twice with HMVEC-LBl and once with HMVEC-DBl) were run with n = 3–5 inserts (independent biological replicates) per group and analyzed by two-sampled unpaired t-tests. […]
Endothelial cells (ECs) were grown on cell culture inserts with uncoated 8-μm-pore PET filter membranes to 100% confluency. […] After 30 min of thrombin stimulation or 4–6 h of TC-CM stimulation, FITC fluorescence (ex/em = 490/520 nm) was measured from a 50 μl sample of the lower chamber media. […]

The target in assay [2] is T1, human Tie2-Fc (Fc-conjugated extracellular domain of Tie2) (human, UniProt Q02763 23-748).
T1 chain: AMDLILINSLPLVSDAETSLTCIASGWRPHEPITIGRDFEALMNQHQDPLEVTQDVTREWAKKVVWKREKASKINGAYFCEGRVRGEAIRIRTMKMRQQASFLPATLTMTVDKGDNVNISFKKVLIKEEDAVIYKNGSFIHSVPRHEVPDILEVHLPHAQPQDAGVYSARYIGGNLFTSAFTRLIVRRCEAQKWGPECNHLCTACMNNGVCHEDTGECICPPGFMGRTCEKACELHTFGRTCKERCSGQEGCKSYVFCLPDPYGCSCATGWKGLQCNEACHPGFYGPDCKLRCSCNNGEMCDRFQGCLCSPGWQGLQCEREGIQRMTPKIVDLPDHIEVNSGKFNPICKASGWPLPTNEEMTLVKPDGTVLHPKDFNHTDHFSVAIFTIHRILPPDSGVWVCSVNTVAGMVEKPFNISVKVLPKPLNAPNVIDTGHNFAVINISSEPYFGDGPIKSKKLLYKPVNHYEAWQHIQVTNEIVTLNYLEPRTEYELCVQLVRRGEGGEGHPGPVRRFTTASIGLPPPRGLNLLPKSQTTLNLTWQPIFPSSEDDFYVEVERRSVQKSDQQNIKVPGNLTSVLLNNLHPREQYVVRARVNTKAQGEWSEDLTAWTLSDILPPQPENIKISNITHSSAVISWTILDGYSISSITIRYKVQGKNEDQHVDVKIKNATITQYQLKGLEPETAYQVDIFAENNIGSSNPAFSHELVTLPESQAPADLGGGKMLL
Briefly: SPR.

The text below walks through data of paper PMC4459817, “Vasculotide reduces endothelial permeability and tumor cell extravasation in the absence of binding to or agonistic activation of Tie2” (EMBO Molecular Medicine, 2015).

For the molecule “CHHHRHSF [Vasculotide, 4-armed maleimide-functionalized polyethylene glycol (PEG) backbone to link together four cysteine-capped T7 peptides, that is, CHHHRHSF]”, the “thrombin-stimulated migration of CMTPX-labeled TCs” value in assay [1] (28 h) was “trends of reducing thrombin-stimulated migration”. The “TC migration effect of VT in presence of 100-fold molar excess of T7c” value in assay [1] is on record as “dampened the effects of VT”.

B1: recombinant human Ang1 (rhAng1) (ligand, UniProt Q15389 16-498, looked up)
chain: HIGCSNQRRSPENSGRRYNRIQHGQCAYTFILPEHDGNCRESTTDQYNTNALQRDAPHVEPDFSSQKLQHLEHVMENYTQWLQKLENYIVENMKSEMAQIQQNAVQNHTATMLEIGTSLLSQTAEQTRKLTDVETQVLNQTSRLEIQLLENSLSTYKLEKQLLQQTNEILKIHEKNSLLEHKILEMEGKHKEELDTLKEEKENLQGLVTRQTYIIQELEKQLNRATTNNSVLQKQQLELMDTVHNLVNLCTKEGVLLKGGKREEEKPFRDCADVYQAGFNKSGIYTIYINNMPEPKKVFCNMDVNGGGWTVIQHREDGSLDFQRGWKEYKMGFGNPSGEYWLGNEFIFAITSQRQYMLRIELMDWEGNRAYSQYDRFHIGNEKQNYRLYLKGHTGTAGKQSSLILHGADFSTKDADNDNCMCKCALMLTGGWWFDACGPSNLNGMFYTAGQNHGKLNGIKWHYFKGPSYSLRSTTMMIRPLDF
notes: angiopoietin-1, human, recombinant; also called angiopoietin-1; source: bought: R&D Systems (named for the Boyden chamber experiments)
As usually defined, the Kd is the concentration at which binding is half-saturated. Low values mean tighter binding, high ones weaker binding. As to B1, in assay [2], the Kd worked out at 0.205 nM.
